The source made the active and inactive calls. How the calls were made is not given here.
System: Broad 7084-01 inhibitor HTS, set 2
Experiment: single-concentration hits, screen 7084 set 2 (AID 977613);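 further: host cells are infected with parasite promastigotes that become internalized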

Structure (SMILES)	active concentration
CCCNC(=O)N1CC(=O)N2[C@H](CO)[C@H](c3ccc(-c4ccc(F)cc4)cc3)[C@H]2C1	> 10 µM (inactive)
O=C(C[C@@H]1CC[C@@H]2NC[C@@H](O)COC[C@H]2O1)NCCN1CCCC1	> 10 µM (inactive)
Cn1cnc(S(=O)(=O)N2C[C@@H](O)COC[C@@H]3O[C@@H](CC(=O)NC4CCCC4)CC[C@H]32)c1	> 10 µM (inactive)
O=C(C[C@@H]1CC[C@@H]2[C@H](COC[C@@H](O)CN2Cc2ccc(Cl)cc2)O1)NCc1ccccc1Cl	> 10 µM (inactive)
O=C(C[C@H]1CC[C@H]2[C@@H](COC[C@H](O)CN2C(=O)C2CC2)O1)NCc1ccncc1	> 10 µM (inactive)
CN(C)CC(=O)N1CCCCN2[C@H](C1)[C@@H](c1ccc(/C=C/c3ccccc3)cc1)[C@@H]2CO	> 10 µM (inactive)
COc1cccc(C(=O)Nc2ccc3c(c2)C(=O)N(C)[C@H]2CC[C@H](CC(=O)NCCCN4CCOCC4)O[C@H]2CO3)c1	> 10 µM (inactive)
COc1cccc(C#Cc2ccc([C@@H]3[C@@H](CO)N4C(=O)CN(C(=O)Cc5cccnc5)C[C@H]34)cc2)c1	> 10 µM (inactive)
CN(C)C(=O)c1cccc(-c2ccc([C@@H]3[C@@H](CO)N4C(=O)CN(C(=O)C5CCC5)C[C@@H]34)cc2)c1	> 10 µM (inactive)
O=C(NCC1CCCCC1)[C@@H]1[C@@H](CO)[C@@H]2Cn3c(ccc(-c4cncnc4)c3=O)[C@H]1N2	> 10 µM (inactive)
CCNC(=O)Nc1ccc2c(c1)C(=O)N(C)[C@@H]1CC[C@@H](CC(=O)N[C@H](C)c3ccccc3)O[C@H]1CO2	> 10 µM (inactive)
O=C(c1ccccc1)N1CC(=O)N2[C@H](C1)[C@@H](c1ccc(-c3ccccc3)cc1)[C@@H]2CO	> 10 µM (inactive)
O=C(C[C@H]1CC[C@H]2[C@@H](COC[C@H](O)CN2CC2CCOCC2)O1)NCC1CCCCC1	> 10 µM (inactive)
COc1ccc(-c2ccccc2[C@@H]2[C@@H](C#N)N(C(=O)NC3CCCCC3)[C@H]2CO)cc1	> 10 µM (inactive)
O=C1CNC[C@@H]2[C@H](c3ccc(-c4ccccc4F)cc3)[C@@H](CO)N12	> 10 µM (inactive)
COc1cccc(C#Cc2ccc([C@H]3[C@H](CO)N4C(=O)CN(C(=O)Cc5cccnc5)C[C@@H]34)cc2)c1	> 10 µM (inactive)
C/C=C/c1ccc([C@H]2[C@@H](CO)N(C(=O)CN(C)C)C23CN(C(=O)C2CCC2)C3)cc1	> 10 µM (inactive)
CN1CCN(C(=O)C[C@@H]2CC[C@@H]3[C@H](COC[C@H](O)CN3CC3CC3)O2)CC1	> 10 µM (inactive)
CCC(=O)N1[C@H](CO)[C@@H](c2ccc(/C=C/c3ccccc3)cc2)C12CN(S(C)(=O)=O)C2	> 10 µM (inactive)
O=C([C@@H]1N[C@@H]2c3ccc(-c4ccccc4F)c(=O)n3C[C@@H]2[C@H]1CO)N1CCc2ccccc2C1	> 10 µM (inactive)
C/C=C/c1ccc([C@@H]2[C@@H](CO)N3C(=O)CN(Cc4ccc(F)cc4)C[C@@H]23)cc1	> 10 µM (inactive)
O=C(C[C@H]1CC[C@@H]2[C@H](COC[C@H](O)CN2Cc2cc(F)cc(F)c2)O1)NC1CCC1	> 10 µM (inactive)
CCCC#Cc1ccc([C@H]2[C@H]3CN(C(=O)CN4CCOCC4)CC(=O)N3[C@H]2CO)cc1	> 10 µM (inactive)
Cc1ccccc1-c1ccc([C@@H]2[C@@H](CO)N3C(=O)CN(S(C)(=O)=O)C[C@@H]23)cc1	> 10 µM (inactive)
CC(C)CC#Cc1ccc([C@@H]2[C@H]3CN(C(=O)c4ccccn4)CC(=O)N3[C@H]2CO)cc1	> 10 µM (inactive)
CCCNC(=O)N1[C@@H]2CN(C(=O)c3cccnc3)c3ccccc3[C@@H]2[C@@H]1CO	> 10 µM (inactive)
COc1cccc(NC(=O)N2C[C@@H](O)COC[C@@H]3O[C@@H](CC(=O)NC4CCC4)CC[C@H]32)c1	> 10 µM (inactive)
O=C(c1ccccn1)N1CC[C@@H]2[C@@H](CO)Nc3ccc(Br)cc3[C@@H]21	> 10 µM (inactive)

From PubChem BioAssay AID977613 (Broad Institute, 2014)
